Reference: US9403823B2, “Protein kinase inhibitors” (ORIBASE PHARMA, priority 2012, dated 2016)
Like-named read-outs stand apart in the source and are kept apart here.

Experiments:
[1] = biological target: T1, BRAF (Homo sapiens, UniProt P15056); experiment: In vitro kinase assay (Z'-LYTE), BRAF; format: biochemical; conditions: read-out: % of inhibition of the kinase compared to the control
T1 construct: purchased Invitrogen
Description: (§1) 1) In Vitro Kinase Assays (Table 10 to Table 21)
(§2) The inhibitory activity of the compounds on several kinases including BRAF, EGFR (ErbB1), EGFR (ErbB1) T790M L858R, FGFR2, KDR (VEGFR2), PDGFRA (PDGFR alpha), SRC and other was evaluated by Invitrogen using the Z′-LYTE® technology. Briefly, the Z′-LYTE® biochemical assay employs a fluorescence-based, coupled-enzyme format and is based on the differential sensitivity of phosphorylated and non-phosphorylated peptides to proteolytic cleavage. The peptide substrate is labeled with two fluorophores—one at each end—that make up a FRET pair. A ratiometric method, which calculates the ratio (the Emission Ratio) of donor emission to acceptor emission after excitation of the donor fluorophore at 400 nm, is used to quantitate reaction progress.
(§3) The compounds are screened in 1% DMSO (final) in the well. For 10 point titrations, 3-fold serial dilutions are conducted from the starting concentration. All Peptide/Kinase Mixtures are diluted to a 2× working concentration in the appropriate Kinase Buffer. All ATP Solutions are diluted to a 4× working concentration in Kinase Buffer (50 mM HEPES pH 7.5, 0.01% BRIJ-35, 10 mM MgCl2, 1 mM EGTA). ATP Km apparent is previously determined using a Z′-LYTE® assay.
(§4) Each compound was incubated at a concentration of 100 nM (excepted to test the activity against ABL and ABL T315I for which the compounds were incubated at a concentration of 10 μM) and the tables 10 to 21 summarize the results obtained showing the inhibitory power of a compound.

[2] = test system: HUVEC; experiment: In vitro cell proliferation assay (MTT), HUVEC; format: cell-based; conditions: Homo sapiens, read-out: EC50, anti-proliferative activity
Description: (§5) 2) In Vitro Cell Proliferation Assays (Table 22 to Table 35)
(§6) Cancer cell lines (5×10^3 cells per well) or HUVEC (1×10^4 cells per well) or HRMEC (1×10^4 cells per well) were distributed in 96-well plates and incubating in duplicate with escalating concentrations (10 nM to 3 μM) of compounds for 72 hr. Cell proliferation was measured using MTT (3[4,5-dimethylthiazol-2-yl]-2,5-diphenyltetrazolium bromide).

[3] = test system: HepG2 cell line; experiment: In vitro cell proliferation assay (MTT), HepG2; format: cell-based; conditions: Homo sapiens, read-out: EC50, anti-proliferative activity
Description: as §5, §6

[4] = biological target: T2, FGFR2 (Homo sapiens, UniProt P21802); experiment: In vitro kinase assay (Z'-LYTE), FGFR2; format: biochemical; conditions: read-out: % of inhibition of the kinase compared to the control
T2 construct: purchased Invitrogen
T2 sequence (P21802 22-821): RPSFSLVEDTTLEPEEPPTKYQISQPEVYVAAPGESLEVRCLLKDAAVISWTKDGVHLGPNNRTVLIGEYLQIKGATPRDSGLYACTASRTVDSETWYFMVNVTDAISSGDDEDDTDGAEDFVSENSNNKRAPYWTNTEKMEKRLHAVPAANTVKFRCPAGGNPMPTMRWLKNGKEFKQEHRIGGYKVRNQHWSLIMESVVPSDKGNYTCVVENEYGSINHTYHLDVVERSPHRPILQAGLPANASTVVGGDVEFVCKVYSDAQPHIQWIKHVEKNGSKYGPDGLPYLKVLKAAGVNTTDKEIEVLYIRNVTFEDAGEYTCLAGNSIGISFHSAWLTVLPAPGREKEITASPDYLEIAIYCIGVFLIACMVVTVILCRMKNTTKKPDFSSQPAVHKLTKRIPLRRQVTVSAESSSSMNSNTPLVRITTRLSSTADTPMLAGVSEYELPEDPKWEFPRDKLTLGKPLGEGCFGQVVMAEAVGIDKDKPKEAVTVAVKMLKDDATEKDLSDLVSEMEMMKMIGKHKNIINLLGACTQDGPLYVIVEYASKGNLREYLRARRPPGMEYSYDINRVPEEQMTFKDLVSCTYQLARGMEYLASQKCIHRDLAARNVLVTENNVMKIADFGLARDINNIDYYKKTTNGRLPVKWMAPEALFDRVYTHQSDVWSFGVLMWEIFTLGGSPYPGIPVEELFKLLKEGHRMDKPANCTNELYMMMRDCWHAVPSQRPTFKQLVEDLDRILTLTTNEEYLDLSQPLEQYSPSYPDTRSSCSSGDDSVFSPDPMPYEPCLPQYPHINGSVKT
Description: as §1, §2, §3, §4

[5] = biological target: T3, SRC (Homo sapiens, UniProt P12931); experiment: In vitro kinase assay (Z'-LYTE), SRC; format: biochemical; conditions: read-out: % of inhibition of the kinase compared to the control
T3 construct: purchased Invitrogen
T3 sequence (P12931 whole entry): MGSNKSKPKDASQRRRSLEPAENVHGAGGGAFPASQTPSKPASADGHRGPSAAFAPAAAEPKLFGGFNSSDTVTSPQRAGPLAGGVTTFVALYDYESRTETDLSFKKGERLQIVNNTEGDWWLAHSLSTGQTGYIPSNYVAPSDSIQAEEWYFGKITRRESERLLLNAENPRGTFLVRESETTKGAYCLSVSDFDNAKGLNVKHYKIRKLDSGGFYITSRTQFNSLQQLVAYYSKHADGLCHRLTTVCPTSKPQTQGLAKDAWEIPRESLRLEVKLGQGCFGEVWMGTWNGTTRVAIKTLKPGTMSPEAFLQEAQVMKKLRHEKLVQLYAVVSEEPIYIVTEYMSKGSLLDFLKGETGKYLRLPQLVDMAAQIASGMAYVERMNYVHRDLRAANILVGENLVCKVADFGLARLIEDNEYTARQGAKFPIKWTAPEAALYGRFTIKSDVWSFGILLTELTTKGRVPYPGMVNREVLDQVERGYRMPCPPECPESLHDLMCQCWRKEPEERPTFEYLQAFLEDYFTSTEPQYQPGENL
Description: as §1, §2, §3, §4

[6] = biological target: T4, KDR (VEGFR2) (Homo sapiens, UniProt P35968); experiment: In vitro kinase assay (Z'-LYTE), KDR (VEGFR2); format: biochemical; conditions: read-out: % of inhibition of the kinase compared to the control
T4 construct: purchased Invitrogen
T4 sequence (P35968 20-1356): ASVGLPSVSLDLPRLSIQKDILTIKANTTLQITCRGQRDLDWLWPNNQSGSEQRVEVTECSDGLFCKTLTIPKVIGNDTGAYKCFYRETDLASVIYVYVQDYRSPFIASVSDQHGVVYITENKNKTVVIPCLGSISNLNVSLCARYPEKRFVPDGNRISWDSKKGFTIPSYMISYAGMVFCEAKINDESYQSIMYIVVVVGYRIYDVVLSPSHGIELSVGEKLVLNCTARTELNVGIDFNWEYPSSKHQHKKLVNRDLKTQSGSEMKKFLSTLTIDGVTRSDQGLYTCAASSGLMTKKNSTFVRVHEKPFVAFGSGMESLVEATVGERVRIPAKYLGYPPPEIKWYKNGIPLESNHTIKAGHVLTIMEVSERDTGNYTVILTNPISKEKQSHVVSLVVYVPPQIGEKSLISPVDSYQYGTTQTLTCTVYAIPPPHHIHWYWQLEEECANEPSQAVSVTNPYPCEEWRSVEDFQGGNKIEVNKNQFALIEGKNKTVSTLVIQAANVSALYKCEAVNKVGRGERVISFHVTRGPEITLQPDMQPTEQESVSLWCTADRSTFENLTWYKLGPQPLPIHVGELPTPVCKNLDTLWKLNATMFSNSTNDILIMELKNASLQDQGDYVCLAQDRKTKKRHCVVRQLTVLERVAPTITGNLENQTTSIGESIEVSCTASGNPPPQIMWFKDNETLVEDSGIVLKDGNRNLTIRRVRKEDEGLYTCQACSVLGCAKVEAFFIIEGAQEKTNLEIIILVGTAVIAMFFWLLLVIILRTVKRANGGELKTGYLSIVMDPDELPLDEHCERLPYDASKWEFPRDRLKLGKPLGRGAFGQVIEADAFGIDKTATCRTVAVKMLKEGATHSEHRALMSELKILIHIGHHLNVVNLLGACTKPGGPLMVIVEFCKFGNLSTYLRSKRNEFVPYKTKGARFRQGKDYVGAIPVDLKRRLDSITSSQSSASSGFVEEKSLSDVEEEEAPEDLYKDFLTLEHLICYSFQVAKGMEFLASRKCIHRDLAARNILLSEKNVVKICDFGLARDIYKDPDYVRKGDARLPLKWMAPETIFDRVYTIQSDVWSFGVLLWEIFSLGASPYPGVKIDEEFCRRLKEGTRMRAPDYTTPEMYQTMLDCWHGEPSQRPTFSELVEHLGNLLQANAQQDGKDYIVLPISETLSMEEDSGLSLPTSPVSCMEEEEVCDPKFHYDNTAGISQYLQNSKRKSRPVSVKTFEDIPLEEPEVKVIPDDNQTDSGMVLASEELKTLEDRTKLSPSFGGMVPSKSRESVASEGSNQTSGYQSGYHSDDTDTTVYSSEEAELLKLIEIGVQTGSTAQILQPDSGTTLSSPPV
Description: as §1, §2, §3, §4

[7] = biological target: T5, PDGFRA (PDGFR alpha) (Homo sapiens, UniProt P16234); experiment: In vitro kinase assay (Z'-LYTE), PDGFRA; format: biochemical; conditions: read-out: % of inhibition of the kinase compared to the control
T5 construct: purchased Invitrogen
Description: as §1, §2, §3, §4

[8] = biological target: T6, EGFR (ErbB1) (Homo sapiens, UniProt P00533); experiment: In vitro kinase assay (Z'-LYTE), EGFR (ErbB1); format: biochemical; conditions: read-out: % of inhibition of the kinase compared to the control
T6 construct: purchased Invitrogen
T6 sequence (P00533 25-1210): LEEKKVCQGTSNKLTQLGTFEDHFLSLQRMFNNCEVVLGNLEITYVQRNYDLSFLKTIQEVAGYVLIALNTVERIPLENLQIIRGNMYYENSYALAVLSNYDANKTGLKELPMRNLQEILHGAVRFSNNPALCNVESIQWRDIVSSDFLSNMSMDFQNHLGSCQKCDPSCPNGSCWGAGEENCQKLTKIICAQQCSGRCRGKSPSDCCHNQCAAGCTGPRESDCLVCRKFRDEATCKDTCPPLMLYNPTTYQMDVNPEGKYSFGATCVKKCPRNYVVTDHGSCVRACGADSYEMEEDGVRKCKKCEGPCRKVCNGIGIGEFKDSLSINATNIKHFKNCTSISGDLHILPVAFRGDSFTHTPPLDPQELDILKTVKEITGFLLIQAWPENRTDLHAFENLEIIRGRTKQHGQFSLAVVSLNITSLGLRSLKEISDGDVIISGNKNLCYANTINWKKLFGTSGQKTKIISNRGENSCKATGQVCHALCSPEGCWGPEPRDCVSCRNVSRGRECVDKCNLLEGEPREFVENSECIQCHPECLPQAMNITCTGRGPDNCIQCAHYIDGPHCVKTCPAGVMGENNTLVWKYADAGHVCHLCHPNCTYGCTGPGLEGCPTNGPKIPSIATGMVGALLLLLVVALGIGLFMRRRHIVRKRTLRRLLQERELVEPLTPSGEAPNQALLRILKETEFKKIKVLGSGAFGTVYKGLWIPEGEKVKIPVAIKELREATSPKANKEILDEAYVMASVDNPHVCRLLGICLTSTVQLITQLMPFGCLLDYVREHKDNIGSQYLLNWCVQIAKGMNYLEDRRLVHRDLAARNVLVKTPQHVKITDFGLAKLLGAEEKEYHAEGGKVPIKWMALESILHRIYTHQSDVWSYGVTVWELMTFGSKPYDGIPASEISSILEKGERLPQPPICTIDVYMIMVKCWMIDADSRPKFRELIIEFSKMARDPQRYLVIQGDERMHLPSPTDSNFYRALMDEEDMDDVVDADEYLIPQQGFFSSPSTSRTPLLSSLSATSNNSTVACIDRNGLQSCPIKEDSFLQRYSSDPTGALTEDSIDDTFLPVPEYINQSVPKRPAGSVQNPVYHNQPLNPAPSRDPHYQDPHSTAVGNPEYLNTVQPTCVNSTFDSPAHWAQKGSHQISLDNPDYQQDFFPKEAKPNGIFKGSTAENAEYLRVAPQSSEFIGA
Description: as §1, §2, §3, §4

[9] = test system: A549 cell line; experiment: In vitro cell proliferation assay (MTT), A549; format: cell-based; conditions: Homo sapiens, read-out: EC50, anti-proliferative activity
Description: as §5, §6

[10] = test system: MDA-MB-231 cell line; experiment: In vitro cell proliferation assay (MTT), MDA-MB-231; format: cell-based; conditions: Homo sapiens; MDA-MB-231, 72 hr, MTT; read-out: EC50, anti-proliferative activity
Description: as §5, §6

T1 sequence (P15056 whole entry): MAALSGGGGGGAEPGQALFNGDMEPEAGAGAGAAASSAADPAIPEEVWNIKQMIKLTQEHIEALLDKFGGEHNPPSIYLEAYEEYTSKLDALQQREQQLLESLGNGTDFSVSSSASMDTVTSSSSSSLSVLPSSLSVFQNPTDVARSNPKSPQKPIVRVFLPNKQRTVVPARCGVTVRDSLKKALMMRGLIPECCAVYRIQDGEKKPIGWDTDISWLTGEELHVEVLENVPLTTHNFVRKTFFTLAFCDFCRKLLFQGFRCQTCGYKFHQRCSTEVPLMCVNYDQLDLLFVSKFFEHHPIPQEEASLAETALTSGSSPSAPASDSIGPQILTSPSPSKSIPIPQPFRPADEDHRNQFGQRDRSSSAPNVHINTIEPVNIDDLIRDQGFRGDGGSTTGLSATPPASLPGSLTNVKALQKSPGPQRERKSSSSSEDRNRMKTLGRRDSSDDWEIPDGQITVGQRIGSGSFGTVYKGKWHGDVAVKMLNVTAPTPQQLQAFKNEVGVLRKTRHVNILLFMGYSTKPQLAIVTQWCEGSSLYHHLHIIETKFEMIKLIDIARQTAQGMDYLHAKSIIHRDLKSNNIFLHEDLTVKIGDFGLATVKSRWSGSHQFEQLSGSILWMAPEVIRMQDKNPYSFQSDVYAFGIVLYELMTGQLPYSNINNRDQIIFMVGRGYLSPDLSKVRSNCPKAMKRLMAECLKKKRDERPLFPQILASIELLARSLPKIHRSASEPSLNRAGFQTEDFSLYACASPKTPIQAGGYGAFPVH

Structure (SMILES)	inhibition at 0.1 µM [1]	EC50 ([2]; 72 h)	EC50 ([3]; HepG2, 72 hr, MTT)	inhibition at 0.1 µM [4]	inhibition at 0.1 µM [5]	inhibition at 0.1 µM [6]	inhibition at 0.1 µM [7]	inhibition at 0.1 µM [8]	EC50 ([3]; HepG2, 72 h)	EC50 ([9]; A549, 72 hr, MTT)	EC50 ([9]; A549, 72 h)	EC50 ([2]; 72 hr, MTT)	EC50 [10]
CC(=O)c1cc2cc(NCc3cc(NC(=O)c4cncc(C)c4)ccc3C)cnc2[nH]1 [OR0888, N-{3-[(2-Acetyl-1H-pyrrolo[2,3-b]pyridin-5-ylamino)-methyl]-4-methyl-phenyl}-5-methyl-nicotinamide]	≥ 50%	100 to 1000 nM	≥ 1000 nM	< 50%	≥ 50%	≥ 50%	≥ 50%	< 50%	–	–	–	–	–
CC(=O)c1cc2cc(NCc3cc(NC(=O)c4ccc(C)c(C(F)(F)F)c4)ccc3C)cnc2[nH]1 [OR0890, N-{3-[(2-Acetyl-1H-pyrrolo[2,3-b]pyridin-5-ylamino)-methyl]-4-methyl-phenyl}-4-methyl-3-trifluoromethyl-benzamide]	< 50%	100 to 1000 nM	–	< 50%	≥ 50%	< 50%	≥ 50%	≥ 50%	100 to 1000 nM	–	–	–	–
C#Cc1cccc(Nc2ncnc3cc(OCCOC)c(OCCOC)cc23)c1 [Erlotinib, reference compound]	–	–	–	–	–	–	–	–	–	≥ 1000 nM	–	–	–
CCN(CC)C(=O)c1cc2cc(NCc3cc(NC(=O)c4ccc(CN5CCN(C)CC5)c(C(F)(F)F)c4)ccc3C)cnc2[nH]1 [OR1076, 5-{2-Methyl-5-[4-(4-methyl-piperazin-1-ylmethyl)-3-trifluoromethyl-benzoylamino]-benzylamino}-1H-pyrrolo[2,3-b]pyridine-2-carboxylic acid diethylamide]	–	–	–	–	–	–	–	–	–	–	100 to 1000 nM	–	–
CC(=O)c1cc2cc(NCc3cc(NC(=O)Nc4cccc(C(F)(F)F)c4)ccc3C)cnc2[nH]1 [OR0895, 1-{3-[(2-Acetyl-1H-pyrrolo[2,3-b]pyridin-5-ylamino)-methyl]-4-methyl-phenyl}-3-(3-trifluoromethyl-phenyl)-urea]	< 50%	–	–	< 50%	< 50%	< 50%	≥ 50%	< 50%	100 to 1000 nM	–	–	≥ 1000 nM	–
CC(=O)c1cc2cc(NCc3cc(NS(=O)(=O)c4cccc(C(F)(F)F)c4)ccc3C)cnc2[nH]1 [OR0930, N-{3-[(2-Acetyl-1H-pyrrolo[2,3-b]pyridin-5-ylamino)-methyl]-4-methyl-phenyl}-3-trifluoromethyl-benzenesulfonamide]	< 50%	–	≥ 1000 nM	< 50%	< 50%	< 50%	< 50%	< 50%	–	–	–	≥ 1000 nM	–
CC(=O)c1cc2cc(NCc3cc(NC(=O)c4ccc5[nH]nnc5c4)ccc3C)cnc2[nH]1 [OR0979, 1H-Benzotriazole-5-carboxylic acid {3-[(2-acetyl-1H-pyrrolo[2,3-b]pyridin-5-ylamino)-methyl]-4-methyl-phenyl}-amide]	≥ 50%	–	≥ 1000 nM	< 50%	< 50%	< 50%	≥ 50%	< 50%	–	–	–	≥ 1000 nM	–
Cc1ccc(NC(=O)c2cncc(C(F)(F)F)c2)cc1C(=S)Nc1cnc2[nH]c(C(=O)O)cc2c1 [OR1053]	< 50%	–	≥ 1000 nM	< 50%	≥ 50%	< 50%	≥ 50%	≥ 50%	–	≥ 1000 nM	–	≥ 1000 nM	≥ 1000 nM
CC(=O)c1cc2cc(NC(=O)c3cc(NC(=O)Nc4cccc(C(F)(F)F)c4)ccc3C)cnc2[nH]1 [OR0951, N-(2-Acetyl-1H-pyrrolo[2,3-b]pyridin-5-yl)-2-methyl-5-[3-(3-trifluoromethyl-phenyl)-ureido]-benzamide]	< 50%	–	–	< 50%	< 50%	< 50%	< 50%	< 50%	≤ 100 nM	–	–	≥ 1000 nM	–
CC(=O)c1cc2cc(NCc3cc(NC(=O)c4ccncn4)ccc3C)cnc2[nH]1 [OR0988, Pyrimidine-4-carboxylic acid {3-[(2-acetyl-1H-pyrrolo[2,3-b]pyridin-5-ylamino)-methyl]-4-methyl-phenyl}-amide]	< 50%	–	≥ 1000 nM	< 50%	< 50%	< 50%	< 50%	< 50%	–	–	–	≥ 1000 nM	–
CC(=O)c1cc2cc(NCc3cc(NC(=O)c4ccc5[nH]ccc5c4)ccc3C)cnc2[nH]1 [OR0980, 1H-Indole-5-carboxylic acid {3-[(2-acetyl-1H-pyrrolo[2,3-b]pyridin-5-ylamino)-methyl]-4-methyl-phenyl}-amide]	≥ 50%	–	–	< 50%	< 50%	< 50%	≥ 50%	< 50%	100 to 1000 nM	–	–	≥ 1000 nM	–
CC(=O)c1cc2cc(NCc3cccc(NC(=O)c4cncc(C(F)(F)F)c4)c3)cnc2[nH]1 [OR0950, N-{3-[(2-Acetyl-1H-pyrrolo[2,3-b]pyridin-5-ylamino)-methyl]-phenyl}-5-trifluoromethyl-nicotinamide]	≥ 50%	–	–	< 50%	< 50%	≥ 50%	≥ 50%	< 50%	100 to 1000 nM	–	–	≥ 1000 nM	–
CC(=O)c1cc2cc(NCc3cc(NC(=O)c4ccnc(C)c4)ccc3C)cnc2[nH]1 [OR0889, N-{3-[(2-Acetyl-1H-pyrrolo[2,3-b]pyridin-5-ylamino)-methyl]-4-methyl-phenyl}-2-methyl-isonicotinamide]	≥ 50%	100 to 1000 nM	≥ 1000 nM	< 50%	< 50%	< 50%	≥ 50%	< 50%	–	–	–	–	–
CC(=O)c1cc2cc(NCc3cc(NC(=O)c4ccc(Cl)c(C(F)(F)F)c4)ccc3C)cnc2[nH]1 [OR0891, N-{3-[(2-Acetyl-1H-pyrrolo[2,3-b]pyridin-5-ylamino)-methyl]-4-methyl-phenyl}-4-chloro-3-trifluoromethyl-benzamide]	< 50%	100 to 1000 nM	–	< 50%	< 50%	< 50%	< 50%	< 50%	100 to 1000 nM	–	–	–	–
CC(=O)c1cc2cc(NCc3cc(NC(=O)Cc4cccc(C(F)(F)F)c4)ccc3C)cnc2[nH]1 [OR0968, N-{3-[(2-Acetyl-1H-pyrrolo[2,3-b]pyridin-5-ylamino)-methyl]-4-methyl-phenyl}-2-(3-trifluoromethyl-phenyl)-acetamide]	≥ 50%	–	–	< 50%	< 50%	< 50%	≥ 50%	< 50%	100 to 1000 nM	–	–	≥ 1000 nM	–
CC(=O)c1cc2cc(NCc3cc(NC(=O)C4CC4)ccc3C)cnc2[nH]1 [OR0929, Cyclopropanecarboxylic acid {3-[(2-acetyl-1H-pyrrolo[2,3-b]pyridin-5-ylamino)-methyl]-4-methyl-phenyl}-amide]	< 50%	–	≥ 1000 nM	< 50%	< 50%	< 50%	< 50%	< 50%	–	–	–	≥ 1000 nM	–
